According to patent publication US20040048747A1, “Product formulation and method of its application for increasing the efficiency of systemic herbicides” (priority 2000, published 2004):

Experiments:
Assay type in all cases: in vivo
[1] = system: dandelion (Taraxacum cordátum Palmgr.); test: Greenhouse pot spray test, selected formates with selected systemic herbicides (Example 3), dandelion; conditions: for desiccation of the leaves / damage (necrosis): formates 3000 ml (g) per decar, 6, 14 and 21 days after spraying
Experimental: Potassium diformate in a 50% water/volume solution (coded K-diform in the enclosed graphs). Potassium formate (50% w/v) (coded K-form in the enclosed graphs). Solid calcium formate solid was dissolved in water and coded Ca-form in the enclosed graphs. Dose rates applied were: 0 and 3000 ml (g) per decar (10^3 m^2).
“Roundup Bio” (360 gram/litre glyphosate), “Arsenal 250” (250 gram/litre imazapyr) and “Titus” (250 gram/kg rimsulfuron). The herbicides were applied at dose rates: 10%-40% of full rate:
Adjuvant: 0.1% wetting agent (“DP-spredemiddel”)
The formates, herbicides and adjuvants were mixed before spraying and applied at a calculated spray volume of 50 litre per decar (10^3 m^2). Seven pots were given each treatment.
The investigations were done on dandelion (Taraxacum cordátum Palmgr.):
The dandelion seeds were sown June 20 and transplanted to 13 cm plastic pots, one plant per pot. The plants were raised in a greenhouse. The spraying was carried out August 1 and the plants kept in greenhouse until harvest. Greenhouse conditions: 20-25° C. in 16 hrs, 14° C. in 8 hrs. Day length: 16 hrs artificial light.
Assessments of damage (necrosis): 6, 14 and 21 days after treatment (DAT). Regrowth and fresh weight were assessed 21 days after spraying.

Poa annua = test: Greenhouse pot spray test, potassium diformate and glyphosate combinations (Example 1), Poa annua; conditions: glyphosate alone, compared with the combination
Source text: (§1) The aim of this experiment was to investigate if a small dose of glyphosate, a foliage applied systemic herbicide, could extend the herbicide effect of potassium diformate. This is in particular important in perennial weeds, but also to have a complete kill of annual weeds.
(§2) Control of annual weeds will be essential in garden paths, roads, roadsides and other areas covered with gravel, bricks or flag stones. The weed must be totally killed since there is no competition from crop plants like in crop use situations. The aim of the experiment in greenhouse was to find methods to have optimal herbicide effect of K-diformate on different weed species and rape, which served as a model weed.
(§3) Seeds were sown in trays, and 2 seedlings were transplanted to 12 cm pots. The soil used was a mixture of 84% sphagnum, 10% sand and 6% clay. The pH was 5.8 and the soil was amended with balanced nutrients.
(§4) The temperature was set to 20° C. for 16 hours, 14° C. for 8 hours, but it varied ±3° C. Light period followed the natural day lengths, but artificial light was supplied 16 hours per day.
(§5) A wetting agent (0.1%) was used in order to secure complete contact with the plants to be treated. […]
(§6) Damage or injury of the plants was visually assessed after the following scale: […]

[2] = system: Dandelion (Taráxacum cordátum); test: Greenhouse pot spray test, potassium diformate and glyphosate combinations (Example 1), dandelion; conditions: glyphosate alone, compared with the combination
Source text: as §1, §2, §3, §4, §5, §6

Compound	desiccation of the leaves / damage (necrosis) [1]	herbicide effect (speed and efficiency) (Poa annua)	herbicide effect (speed and efficiency) [2]	regrowth after mixing herbicide with formate ([1]; 21 days after spraying, lowest dose rates of Roundup and Titus, compared between formates)
O=C[O-].O=C[O-].[Ca+2] [Ca-formate, calcium formate]	even less effective than K-formate			
O=C[O-].[K+] [K-formate, Potassium formate]	less effective			
O=C(O)CNCP(=O)(O)O [glyphosate]		much slower and very much less efficient	much slower and very much less efficient	
O=CO.O=C[O-].[K+] [potassium diformate]	desiccated the leaves quickly			higher after mixing with K-diformate than mixing with Ca- or K-formate
